Converted amounts (≈) assume the structure as drawn. Where two headings read alike, the source gives them in different places.
System: Enterobacterales
Assay: MIC, broth microdilution, CDC/FDA Antibiotic Resistance Isolate Bank (Example 7, Tables 8, 11, 12)
Format: cell-based
Details: for MIC: read-out: MIC; for MIC50 / MIC90: carbapenemase-producing Enterobacterales; for MIC50: read-out: MIC50; for MIC90: read-out: MIC90

## NCC[C@H](O)C(=O)N[C@@H]1C[C@H](N)[C@@H](O[C@H]2O[C@H](CN)[C@@H](O)[C@H](O)[C@H]2O)[C@H](O)[C@H]1O[C@H]1O[C@H](CO)[C@@H](O)[C@H](N)[C@H]1O [Amikacin, amikacin]
Klebsiella pneumoniae, KUB No. 5538, AR Bank# 41
  MIC: > 64 µg/mL
Klebsiella pneumoniae, KUB No. 5540, AR Bank# 43
  MIC: 1 µg/mL (≈ 1.71 µM)
Klebsiella pneumoniae, KUB No. 5541, AR Bank# 44
  MIC: 16 µg/mL (≈ 27.3 µM)
Klebsiella pneumoniae, KUB No. 5543, AR Bank# 46
  MIC: 16 µg/mL (≈ 27.3 µM)
Klebsiella pneumoniae, KUB No. 5546, AR Bank# 49
  MIC: > 64 µg/mL
Klebsiella pneumoniae, KUB No. 5563, AR Bank # 66
  MIC: 8 µg/mL (≈ 13.7 µM)
Klebsiella pneumoniae, KUB No. 5565, AR Bank # 68
  MIC: 64 µg/mL (≈ 109 µM)
Klebsiella pneumoniae, KUB No. 5572, AR Bank # 75
  MIC: > 64 µg/mL
Klebsiella pneumoniae, KUB No. 5573, AR Bank # 76
  MIC: 8 µg/mL (≈ 13.7 µM)
Klebsiella pneumoniae, KUB No. 5576, AR Bank # 79
  MIC: > 64 µg/mL
Klebsiella pneumoniae, KUB No. 5577, AR Bank # 80
  MIC: 4 µg/mL (≈ 6.83 µM)
Klebsiella pneumoniae, KUB No. 5584, AR Bank # 87
  MIC: 1 µg/mL (≈ 1.71 µM)
Klebsiella pneumoniae, KUB No. 5594, AR Bank # 97
  MIC: 64 µg/mL (≈ 109 µM)
Klebsiella pneumoniae, KUB No. 5595, AR Bank # 98
  MIC: 32 µg/mL (≈ 54.6 µM)
Klebsiella pneumoniae, KUB No. 5603, AR Bank # 106
  MIC: > 64 µg/mL
Klebsiella pneumoniae, KUB No. 5604, AR Bank # 107
  MIC: > 64 µg/mL
Klebsiella pneumoniae, KUB No. 5606, AR Bank # 109
  MIC: 8 µg/mL (≈ 13.7 µM)
Klebsiella pneumoniae, KUB No. 5609, AR Bank # 112
  MIC: 32 µg/mL (≈ 54.6 µM)
Klebsiella pneumoniae, KUB No. 5610, AR Bank # 113
  MIC: 32 µg/mL (≈ 54.6 µM)
Klebsiella pneumoniae, KUB No. 5612, AR Bank # 115
  MIC: 0.5 µg/mL (≈ 0.854 µM)
Klebsiella pneumoniae, KUB No. 5614, AR Bank # 117
  MIC: 32 µg/mL (≈ 54.6 µM)
Klebsiella pneumoniae, KUB No. 5617, AR Bank # 120
  MIC: 32 µg/mL (≈ 54.6 µM)
Klebsiella pneumoniae, KUB No. 5622, AR Bank # 125
  MIC: 32 µg/mL (≈ 54.6 µM)
Klebsiella pneumoniae, KUB No. 5623, AR Bank # 126
  MIC: 4 µg/mL (≈ 6.83 µM)
Klebsiella pneumoniae, KUB No. 5626, AR Bank # 129
  MIC: 32 µg/mL (≈ 54.6 µM)
Klebsiella pneumoniae, KUB No. 5632, AR Bank # 135
  MIC: 8 µg/mL (≈ 13.7 µM)
Klebsiella pneumoniae, KUB No. 5635, AR Bank # 138
  MIC: > 64 µg/mL
Klebsiella pneumoniae, KUB No. 5636, AR Bank # 139
  MIC: > 64 µg/mL
Klebsiella pneumoniae, KUB No. 5637, AR Bank # 140
  MIC: > 64 µg/mL
Klebsiella pneumoniae, KUB No. 5638, AR Bank # 141
  MIC: > 64 µg/mL
Klebsiella pneumoniae, KUB No. 5639, AR Bank # 142
  MIC: > 64 µg/mL
Klebsiella pneumoniae, KUB No. 5640, AR Bank # 143
  MIC: > 64 µg/mL
Klebsiella pneumoniae, KUB No. 5642, AR Bank # 145
  MIC: 16 µg/mL (≈ 27.3 µM)
Klebsiella pneumoniae, KUB No. 5643, AR Bank # 146
  MIC: 16 µg/mL (≈ 27.3 µM)
Klebsiella pneumoniae, KUB No. 5645, AR Bank # 148
  MIC: > 64 µg/mL
Klebsiella pneumoniae, KUB No. 5649, AR Bank # 152
  MIC: 32 µg/mL (≈ 54.6 µM)
Klebsiella pneumoniae, KUB No. 5650, AR Bank # 153
  MIC: > 64 µg/mL
Klebsiella pneumoniae, KUB No. 5655, AR Bank # 158
  MIC: 2 µg/mL (≈ 3.42 µM)
Klebsiella pneumoniae, KUB No. 5657, AR Bank # 160
  MIC: 0.5 µg/mL (≈ 0.854 µM)
Klebsiella pneumoniae, KUB No. 5757, AR Bank # 361
  MIC: 32 µg/mL (≈ 54.6 µM)
Klebsiella pneumoniae, KUB No. 5759, AR Bank # 363
  MIC: 16 µg/mL (≈ 27.3 µM)
Klebsiella pneumoniae, KUB No. 5760, AR Bank # 364
  MIC: 16 µg/mL (≈ 27.3 µM)
Klebsiella pneumoniae, KUB No. 5772, AR Bank # 376
  MIC: 2 µg/mL (≈ 3.42 µM)
Klebsiella pneumoniae, Klebsiella pneumoniae KUB No. 5784, AR Bank #438
  MIC: 32 µg/mL (≈ 54.6 µM)
Klebsiella pneumoniae, Klebsiella pneumoniae KUB No. 5797, AR Bank #453
  MIC: 32 µg/mL (≈ 54.6 µM)
Klebsiella pneumoniae, Klebsiella pneumoniae KUB No. 5809, AR Bank #504
  MIC: 2 µg/mL (≈ 3.42 µM)
Klebsiella pneumoniae, Klebsiella pneumoniae KUB No. 5810, AR Bank #505
  MIC: 8 µg/mL (≈ 13.7 µM)
Klebsiella pneumoniae, Klebsiella pneumoniae KUB No. 5811, AR Bank #506
  MIC: 32 µg/mL (≈ 54.6 µM)
Klebsiella pneumoniae, Klebsiella pneumoniae KUB No. 5812, AR Bank #507
  MIC: > 64 µg/mL
Klebsiella pneumoniae, Klebsiella pneumoniae KUB No. 5827, AR Bank #522
  MIC: 4 µg/mL (≈ 6.83 µM)
Klebsiella pneumoniae, Klebsiella pneumoniae KUB No. 5828, AR Bank #523
  MIC: 8 µg/mL (≈ 13.7 µM)
Klebsiella pneumoniae, Klebsiella pneumoniae KUB No. 5829, AR Bank #524
  MIC: 16 µg/mL (≈ 27.3 µM)
Klebsiella pneumoniae, Klebsiella pneumoniae KUB No. 5830, AR Bank #525
  MIC: 32 µg/mL (≈ 54.6 µM)
Kluyvera ascorbata, KUB No. 5641, AR Bank # 144
  MIC: 4 µg/mL (≈ 6.83 µM)
Morganella morganii, KUB No. 5554, AR Bank# 57
  MIC: 4 µg/mL (≈ 6.83 µM)
Morganella morganii, KUB No. 5630, AR Bank # 133
  MIC: 1 µg/mL (≈ 1.71 µM)
Proteus mirabilis, KUB No. 5556, AR Bank# 59
  MIC: 4 µg/mL (≈ 6.83 µM)
Proteus mirabilis, KUB No. 5652, AR Bank # 155
  MIC: 1 µg/mL (≈ 1.71 µM)
Proteus mirabilis, KUB No. 5653, AR Bank # 156
  MIC: 4 µg/mL (≈ 6.83 µM)
Proteus mirabilis, KUB No. 5656, AR Bank # 159
  MIC: > 64 µg/mL
Proteus mirabilis, KUB No. 5773, AR Bank # 377
  MIC: 2 µg/mL (≈ 3.42 µM)
Proteus mirabilis, KUB No. 5775, AR Bank # 379
  MIC: 8 µg/mL (≈ 13.7 µM)
Providencia rettgeri, KUB No. 5579, AR Bank # 82
  MIC: 1 µg/mL (≈ 1.71 µM)
Salmonella enterica, Salmonella Senftenberg, KUB No. 5624, AR Bank # 127
  MIC: > 64 µg/mL
Serratia marcescens, KUB No. 5588, AR Bank # 91
  MIC: 1 µg/mL (≈ 1.71 µM)
Serratia marcescens, KUB No. 5596, AR Bank # 99
  MIC: 1 µg/mL (≈ 1.71 µM)
Serratia marcescens, KUB No. 5618, AR Bank # 121
  MIC: 2 µg/mL (≈ 3.42 µM)
Serratia marcescens, KUB No. 5619, AR Bank # 122
  MIC: 1 µg/mL (≈ 1.71 µM)
Serratia marcescens, KUB No. 5620, AR Bank # 123
  MIC: 1 µg/mL (≈ 1.71 µM)
Serratia marcescens, KUB No. 5621, AR Bank # 124
  MIC: 2 µg/mL (≈ 3.42 µM)
Serratia marcescens, KUB No. 5627, AR Bank # 130
  MIC: 2 µg/mL (≈ 3.42 µM)
Serratia marcescens, KUB No. 5628, AR Bank # 131
  MIC: 1 µg/mL (≈ 1.71 µM)
Serratia marcescens, Serratia marcescens KUB No. 5822, AR Bank #517
  MIC: 8 µg/mL (≈ 13.7 µM)
Serratia marcescens, Serratia marcescens KUB No. 5825, AR Bank #520
  MIC: 64 µg/mL (≈ 109 µM)
Serratia marcescens, Serratia marcescens KUB No. 5826, AR Bank #521
  MIC: 2 µg/mL (≈ 3.42 µM)
Metallo-β-lactamase (N = 47)
  MIC50: 16 µg/mL (≈ 27.3 µM)
  MIC90: > 64 µg/mL
Serine carbapenemase (N=61)
  MIC50: 4 µg/mL (≈ 6.83 µM)
  MIC90: 64 µg/mL (≈ 109 µM)

Source: patent EP4635500A1, “THERAPEUTIC AGENT FOR BACTERIAL INFECTION” (Sumitomo Pharma Co., Ltd., priority 2022, dated 2024)
